“Also recorded” adds a separate entry of the source.
Tests used:
NOS2 = experiment: Western blot of NOS2 in MCF-7 cells; assay type: cell-based, Human; conditions: MCF-7, 6.72 µM, 48 h
Method: (§1) Protein lysates were prepared using RIPA buffer containing cocktail of protease and phosphatase inhibitors (Roche, Basel, Switzerland). Amounts of 50 μg of proteins were resolved on 12% SDS polyacrylamide gels using the Mini-protean cell (Bio-Rad, Hercules, CA, USA). The membranes were incubated with primary antibodies raised against hydroxy-HIF-1α (Pro564) (HIF-1α, 1:1000, rabbit mAb, Cell Signaling Technology, NL) and NOS2 (1:500, mouse mAb, SantaCruzBiotechnology, Dallas, TX, USA) at 4 °C overnight. A secondary antibody linked to anti-mouse (1:1000, Dako, Santa Clara, CA, USA) was used. The signal was visualized by the Western Lightening Chemiluminescence Reagent Plus Kit (Perkin Elmer, Massachusetts, MA, USA) on the ImageQuant LAS500 (GE Healthcare, Chicago, IL, USA), and as a loading control, α-tubulin (1:1000, mouse mAb, Sigma, Sigma Aldrich, Darmstadt, Germany) was used. The signal intensities of bands were normalized and compared in Quantity One software (Bio-Rad, Hercules, CA, USA). Differences in protein relative expression status obtained by western blot analysis were analyzed by two-tailed, paired t-tests (p < 0.05) in the Statistica software package (v.12.0).

HFF-1 cells = experiment: Seahorse XF Cell Mito Stress Test, HFF-1; assay type: cell-based, Human; conditions: HFF-1, 24 h
Method: The Seahorse XF Cell Mito Stress Test was used for measurements of mitochondrial respiration by direct assessment of the oxygen consumption rate (OCR), of treated and untreated cells on the Seahorse XFe24 Analyzer, (Agilent, Santa Clara, CA, USA). Key parameters of the mitochondrial function were measured by direct assessment of the OCR, by use of the Mito Stress Test (Agilent, Agilent, Santa Clara, CA, USA). The Mito Stress Test uses modulators of respiration that target components of the electron transport chain in the mitochondria. The compounds added to the reaction were: oligomycin, mitochondrial oxidative phosphorylation uncoupler carbonyl cyanide-4-(trifluoromethoxy)phenylhydrazone (FCCP), and the mix of rotenone and antymicin A. These were directly injected to the cell growth medium containing cells treated with selected L-ASA derivatives to determine the production of ATP, respiration at maximal level, and the non-mitochondrial respiration. Measured parameters were used for calculation of the proton leakage, spare respiratory capacity, and basal respiration. The assay was performed according to the manufacturer’s instructions (SeaHorse—Mito Stress Test: Agilent, Santa Clara, CA, USA). Briefly, selected compound 4e was tested due to its selective antiproliferative effect on MCF-7 cells. MCF-7 cells were treated for 24 h with compound 4e at 3 different concentrations (at 12.72 µM, 25.44 µM and 50.88 µM) while the cells HFF-1 were treated for 24 h with compound 4e at concentrations 50 µM, 100 µM, and 200 µM. […] The experiment was performed with biological duplicates.

WI-38 (lung fibroblasts) = experiment: MTT proliferation assay, WI-38; assay type: cell-based; conditions: Homo sapiens, 72 h, normal lung fibroblasts
Summary of the method: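 Read-out: A570 after 3 h MTT and DMSO solubilisation, converted to percentage of growth per NIH formulas; IC50 by regression analysis. Exposure: 72 h, 0.01–100 μM, 5000 cells/well plated 24 h earlier in DMEM/10% FBS.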

[1] = tested on: hydroxylated HIF-1α (Pro564); experiment: Western blot of hydroxy-HIF-1α in MCF-7 cells; assay type: cell-based, Human; conditions: MCF-7, 6.72 µM, 48 h
Method: as §1

[2] = parameters: method as in PMID 20925411; conditions: experimental acid dissociation constant; cited from earlier work
[3] = tested on: tested cell lines (A549, CFPAC-1, HCT-116, HeLa, HepG2, MCF-7, SW620, WI-38, HFF-1); experiment: MTT proliferation assay, whole tested cell panel; assay type: cell-based, Human; conditions: 0.01 µM to 100 µM, 72 h
Method: The C-6 substituted 1,2,3-triazole derivatives of L-ASA within the C5-OH group ([…], 4i, 4k−4t, and 4v) and with the C4=C5 double bond (7c−7g and 7i−7q) were evaluated against seven malignant tumor cell lines: lung adenocarcinoma (A549), ductal pancreatic adenocarcinoma (CFPAC-1), colorectal carcinoma (HCT-116), cervical carcinoma (HeLa), hepatocellular carcinoma (HepG2), breast adenocarcinoma (MCF-7), colorectal adenocarcinoma, and metastatic (SW620); as well as normal cell lines: lung fibroblasts (WI-38) and foreskin fibroblasts (HFF-1) (Table 3, Table S1, Supplementary Information). L-ASA was used as a positive control, and carboxyamidotriazole, a known antiproliferative agent that inhibits tumor cell growth, invasion, and metastasis, and 5-fluorouracil (5-FU), were used as reference compounds.
Human tumor cell lines HeLa (cervical carcinoma), SW620 (colorectal adenocarcinoma, metastatic), A549 (lung adenocarcinoma), MCF−7 (breast adenocarcinoma), CFPAC-1 (pancreatic adenocarcinoma, metastatic), HCT-116 (colorectal carcinoma), and HepG2 (hepatocellular carcinoma), and normal cell lines HFF-1 (foreskin fibroblasts) and WI-38 (immortalized human lung fibroblast), were from the US American Type Culture Collection (ATCC, Manassas, VA, USA). Cells were cultured in a liquid nutrient medium (Dulbecco’s Modified Eagle Medium, LONZA, Basel, Switzerland) supplemented with 10% fetal bovine serum (FBS, Gibco, Grand Island, NY, USA), 2 mM L-glutamine (GIBCO, Grand Island, NY, USA), 100 μg/mL penicillin, and 100 μg/mL streptomycin (LONZA, Basel, Switzerland), in an incubator (NÜVE, Ankara, Turkey), at a humid atmosphere with 5% CO2 at 37 °C. Trypsin/EDTA Solution (Lonza, Basel, Switzerland), was used for cell passaging and cell detachment.
Adherent cells were seeded on 96 well microtiter plates (Falcon, New York, NY, USA) at a seeding density of 5000 cells per well, added in 150 μL of cell suspension in a nutrient medium. 24 h after seeding, cells were treated with compound 4b–4g, 4i, 4k–4t, 4v, 7c–7g, and 7i–7q dilutions in the range of 0.01 μM to 100 μM. L-ascoric acid (Sigma Aldrich, Darmstadt, Germany) and Carboxyamidotriazole (Sigma Aldrich, Darmstadt, Germany) were used as control compounds. Incubation of the cells with the compounds were performed for 72 h in a 5% CO2, in humid atmosphere at 37 °C. After incubation, nutrient medium was removed and 40 μL of the MTT reagent ([…]-2,5-diphenyltetrazole bromide (Invitrogen, Carlsbad, CA, USA) was added to each well. 3 h after incubation, 160 μL of DMSO (VWR CHEMICALS, Radnor, PA, USA) were added to each well to dissolve the crystals of purple formazane. The absorbance was measured at 570 nm (TECAN SUNRISE Microtiter plate reader (Männedorf, Switzerland). The experimentally measured optical densities (OD) were converted to the PG (percentage of growth), using the formulas according to the protocol assumed by NIH (National Institute of Health). The IC50 values (concentration causing 50% cell growth inhibition) for each compound were calculated by regression analysis of the survival count curve of the concentrations of the tested compounds. The results were processed in Excel 2010 (Microsoft, Redmond, WA, USA).

SMILES | NOS2 expression (NOS2) | basal cell respiration and ATP production (HFF-1 cells) | cellular metabolism and mitochondrial activity (HFF-1 cells; 100 µM) | IC50 (WI-38 (lung fibroblasts)) [µM] | melting point [°C] | hydroxylated HIF-1α (Pro564) expression [1] | pKa,2 (experimental) [2] | decrease of basal cell respiration and ATP production, switch towards non-mitochondrial respiration (HFF-1 cells; higher concentrations) | antiproliferative / cytotoxic effect on the tested cell lines (in words) [3]
O=C1O[C@H]([C@@H](O)Cn2cc(-c3ccc(Br)cc3)nn2)C(O)=C1O [Compound 4e, 6-[4-(4-bromophenyl)-1,2,3-triazol-1-yl]-6-deoxy-L-ascorbic acid] | decreased expression; also recorded: somewhat decreased | did not affect the basal cell respiration or ATP production; also recorded: did not affect the basal cell respiration and ATP production | slightly positive effect | 73.9 | 159 to 160 | statistically significant increase; also recorded: strongly increased | – | – | –
O=C1O[C@H]([C@@H](O)CO)C(O)=C1O [L-ASA, L-ascorbic acid] | – | – | – | – | – | – | 11.4 | this effect was not observed | no effects on the cell growth

Source: publication PMC6801448, “The Antioxidant and Antiproliferative Activities of 1,2,3-Triazolyl-L-Ascorbic Acid Derivatives” (International Journal of Molecular Sciences, 2019)
